Results: ChEMBL document CHEMBL1139217, “Development of dihydropyridone indazole amides as selective Rho-kinase inhibitors” (J Med Chem, 2007)

How the values were obtained:
[1] = Cmax in Sprague-Dawley rat at 0.9 mg/kg, iv; type: ADME, organism-based; set-up: dose 0.9 mg/kg, route intravenous; conditions: in vivo
[2] = biological target: Ribosomal protein S6 kinase alpha-1 (Homo sapiens, UniProt Q15418); assay: Inhibition of RSK1
[3] = biological target: Rho-associated protein kinase 1 (Homo sapiens, UniProt Q13464); assay: Inhibition of human recombinant ROCK1 expressed in Sf9 cells […]
Sequence of Rho-associated protein kinase 1 (Q13464 whole entry): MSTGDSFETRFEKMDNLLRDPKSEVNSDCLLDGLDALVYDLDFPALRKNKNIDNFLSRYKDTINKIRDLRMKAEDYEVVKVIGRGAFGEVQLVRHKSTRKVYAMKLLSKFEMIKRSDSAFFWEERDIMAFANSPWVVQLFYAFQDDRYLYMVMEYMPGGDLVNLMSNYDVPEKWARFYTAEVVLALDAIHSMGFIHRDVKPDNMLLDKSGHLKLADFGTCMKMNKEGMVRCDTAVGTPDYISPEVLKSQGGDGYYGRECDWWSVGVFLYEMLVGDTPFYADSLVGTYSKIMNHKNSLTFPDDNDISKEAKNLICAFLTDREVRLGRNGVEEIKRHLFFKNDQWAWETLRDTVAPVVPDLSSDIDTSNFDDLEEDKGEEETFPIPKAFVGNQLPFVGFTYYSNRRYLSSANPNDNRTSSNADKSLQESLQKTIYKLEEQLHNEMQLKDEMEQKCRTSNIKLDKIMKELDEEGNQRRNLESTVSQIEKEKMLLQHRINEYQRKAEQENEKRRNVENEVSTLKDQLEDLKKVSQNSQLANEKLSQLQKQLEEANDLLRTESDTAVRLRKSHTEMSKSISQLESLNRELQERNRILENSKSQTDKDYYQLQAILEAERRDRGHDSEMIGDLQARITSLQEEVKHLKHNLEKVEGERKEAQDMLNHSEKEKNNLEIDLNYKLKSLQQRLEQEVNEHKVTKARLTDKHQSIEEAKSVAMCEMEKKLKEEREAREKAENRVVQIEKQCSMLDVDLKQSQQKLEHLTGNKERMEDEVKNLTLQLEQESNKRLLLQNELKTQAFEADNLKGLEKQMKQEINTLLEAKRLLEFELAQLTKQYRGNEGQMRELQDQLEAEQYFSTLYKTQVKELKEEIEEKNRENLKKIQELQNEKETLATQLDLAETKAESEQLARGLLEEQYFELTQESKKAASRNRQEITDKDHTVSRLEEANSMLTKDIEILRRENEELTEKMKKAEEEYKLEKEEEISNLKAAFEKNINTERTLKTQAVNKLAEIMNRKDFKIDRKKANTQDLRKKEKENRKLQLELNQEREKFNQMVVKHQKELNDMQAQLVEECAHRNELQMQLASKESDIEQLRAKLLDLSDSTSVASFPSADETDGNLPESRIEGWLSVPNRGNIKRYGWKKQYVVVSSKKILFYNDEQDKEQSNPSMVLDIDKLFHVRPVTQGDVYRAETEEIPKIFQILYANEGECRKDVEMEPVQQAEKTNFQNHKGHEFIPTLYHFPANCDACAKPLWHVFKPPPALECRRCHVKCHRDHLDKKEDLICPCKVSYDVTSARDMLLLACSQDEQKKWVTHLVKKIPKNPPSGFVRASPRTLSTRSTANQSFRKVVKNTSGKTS

[4] = Volume of distribution in Sprague-Dawley rat at 0.9 mg/kg; type: ADME, organism-based; set-up: dose 0.9 mg/kg; conditions: in vivo, read-out: Vdss
[5] = biological target: Ribosomal protein S6 kinase beta-1 (Homo sapiens, UniProt P23443); assay: Inhibition of p70S6K
Sequence of Ribosomal protein S6 kinase beta-1 (P23443 whole entry): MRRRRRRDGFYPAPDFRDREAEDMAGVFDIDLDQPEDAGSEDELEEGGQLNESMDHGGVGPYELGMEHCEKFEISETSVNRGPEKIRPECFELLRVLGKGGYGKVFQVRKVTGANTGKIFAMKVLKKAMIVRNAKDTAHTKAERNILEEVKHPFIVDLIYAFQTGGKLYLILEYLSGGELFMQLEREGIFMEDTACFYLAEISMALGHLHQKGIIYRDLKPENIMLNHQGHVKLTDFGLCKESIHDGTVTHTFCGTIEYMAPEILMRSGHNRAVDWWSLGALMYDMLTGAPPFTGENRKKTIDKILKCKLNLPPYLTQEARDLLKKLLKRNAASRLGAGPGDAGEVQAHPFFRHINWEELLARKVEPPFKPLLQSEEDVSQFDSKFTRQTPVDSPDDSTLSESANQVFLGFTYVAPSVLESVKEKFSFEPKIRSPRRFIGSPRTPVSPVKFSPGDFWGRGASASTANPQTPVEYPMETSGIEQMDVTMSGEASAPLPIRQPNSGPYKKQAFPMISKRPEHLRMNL

[6] = Half life in Sprague-Dawley rat at 0.9 mg/kg; type: ADME, organism-based; set-up: dose 0.9 mg/kg; conditions: in vivo
[7] = Oral bioavailability in Sprague-Dawley rat at 0.9 mg/kg, po; type: ADME, organism-based; conditions: in vivo
[8] = Clearance in Sprague-Dawley rat at 0.9 mg/kg; type: ADME, organism-based; set-up: dose 0.9 mg/kg; conditions: in vivo
[9] = Clearance in Sprague-Dawley rat; type: ADME, organism-based; conditions: in vivo
[10] = tested on: Thoracic aorta; assay: Dilatory activity against phenylephrine-induced contraction of Sprague-Dawley rat thoracic aorta; type: functional, tissue-based
[11] = Cmax in Sprague-Dawley rat at 1.3 mg/kg, iv; type: ADME, organism-based; set-up: dose 1.3 mg/kg, route intravenous; conditions: in vivo
[12] = Cmax in Sprague-Dawley rat at 1.6 mg/kg, iv; type: ADME, organism-based; set-up: dose 1.6 mg/kg, route intravenous; conditions: in vivo
[13] = Clearance in Sprague-Dawley rat at 1.6 mg/kg; type: ADME, organism-based; set-up: dose 1.6 mg/kg; conditions: in vivo
[14] = Volume of distribution in Sprague-Dawley rat at 1.6 mg/kg; type: ADME, organism-based; set-up: dose 1.6 mg/kg; conditions: in vivo, read-out: Vdss
[15] = Half life in Sprague-Dawley rat at 1.6 mg/kg; type: ADME, organism-based; set-up: dose 1.6 mg/kg; conditions: in vivo
[16] = Oral bioavailability in Sprague-Dawley rat at 1.6 mg/kg, po; type: ADME, organism-based; conditions: in vivo
[17] = Volume of distribution in Sprague-Dawley rat at 1.7 mg/kg; type: ADME, organism-based; set-up: dose 1.7 mg/kg; conditions: in vivo, read-out: Vdss
[18] = Oral bioavailability in Sprague-Dawley rat at 1.7 mg/kg, po; type: ADME, organism-based; conditions: in vivo
[19] = Cmax in Sprague-Dawley rat at 1.7 mg/kg, iv; type: ADME, organism-based; set-up: dose 1.7 mg/kg, route intravenous; conditions: in vivo
[20] = Half life in Sprague-Dawley rat at 1.7 mg/kg; type: ADME, organism-based; set-up: dose 1.7 mg/kg; conditions: in vivo
[21] = Clearance in Sprague-Dawley rat at 1.7 mg/kg; type: ADME, organism-based; set-up: dose 1.7 mg/kg; conditions: in vivo
[22] = Clearance in Sprague-Dawley rat at 1.8 mg/kg; type: ADME, organism-based; set-up: dose 1.8 mg/kg; conditions: in vivo
[23] = Half life in Sprague-Dawley rat at 1.8 mg/kg; type: ADME, organism-based; set-up: dose 1.8 mg/kg; conditions: in vivo
[24] = Plasma concentration in spontaneously hypertensive rat at 3 mg/kg after 8 hrs; type: ADME, organism-based; set-up: dose 3 mg/kg
[25] = Plasma concentration in spontaneously hypertensive rat at 3 mg/kg after 24 hrs; type: ADME, organism-based; set-up: dose 3 mg/kg
[26] = Cmax in Sprague-Dawley rat at 1.8 mg/kg, iv; type: ADME, organism-based; set-up: dose 1.8 mg/kg, route intravenous; conditions: in vivo
[27] = Volume of distribution in Sprague-Dawley rat at 1.8 mg/kg; type: ADME, organism-based; set-up: dose 1.8 mg/kg; conditions: in vivo, read-out: Vdss
[28] = Plasma concentration in spontaneously hypertensive rat at 3 mg/kg after 0.5 hrs; type: ADME, organism-based; set-up: dose 3 mg/kg
[29] = Oral bioavailability in Sprague-Dawley rat at 1.8 mg/kg, po; type: ADME, organism-based; conditions: in vivo
[30] = Plasma concentration in spontaneously hypertensive rat at 3 mg/kg after 1 hr; type: ADME, organism-based; set-up: dose 3 mg/kg
[31] = Plasma concentration in spontaneously hypertensive rat at 3 mg/kg after 4 hrs; type: ADME, organism-based; set-up: dose 3 mg/kg
[32] = Plasma concentration in spontaneously hypertensive rat at 3 mg/kg after 2 hrs; type: ADME, organism-based; set-up: dose 3 mg/kg
[33] = tested on: Rattus norvegicus; assay: Decrease in mean arterial pressure in spontaneously hypertensive rat at 3 mg/kg, po; type: functional, organism-based; set-up: dose 3 mg/kg; conditions: Artery
[34] = Clearance in Sprague-Dawley rat at 1.3 mg/kg; type: ADME, organism-based; set-up: dose 1.3 mg/kg; conditions: in vivo
[35] = Volume of distribution in Sprague-Dawley rat at 1.3 mg/kg; type: ADME, organism-based; set-up: dose 1.3 mg/kg; conditions: in vivo, read-out: Vdss
[36] = Oral bioavailability in Sprague-Dawley rat at 1.3 mg/kg, po; type: ADME, organism-based; conditions: in vivo
[37] = Half life in Sprague-Dawley rat at 1.3 mg/kg; type: ADME, organism-based; set-up: dose 1.3 mg/kg; conditions: in vivo

Sequence of Ribosomal protein S6 kinase alpha-1 (Q15418 whole entry): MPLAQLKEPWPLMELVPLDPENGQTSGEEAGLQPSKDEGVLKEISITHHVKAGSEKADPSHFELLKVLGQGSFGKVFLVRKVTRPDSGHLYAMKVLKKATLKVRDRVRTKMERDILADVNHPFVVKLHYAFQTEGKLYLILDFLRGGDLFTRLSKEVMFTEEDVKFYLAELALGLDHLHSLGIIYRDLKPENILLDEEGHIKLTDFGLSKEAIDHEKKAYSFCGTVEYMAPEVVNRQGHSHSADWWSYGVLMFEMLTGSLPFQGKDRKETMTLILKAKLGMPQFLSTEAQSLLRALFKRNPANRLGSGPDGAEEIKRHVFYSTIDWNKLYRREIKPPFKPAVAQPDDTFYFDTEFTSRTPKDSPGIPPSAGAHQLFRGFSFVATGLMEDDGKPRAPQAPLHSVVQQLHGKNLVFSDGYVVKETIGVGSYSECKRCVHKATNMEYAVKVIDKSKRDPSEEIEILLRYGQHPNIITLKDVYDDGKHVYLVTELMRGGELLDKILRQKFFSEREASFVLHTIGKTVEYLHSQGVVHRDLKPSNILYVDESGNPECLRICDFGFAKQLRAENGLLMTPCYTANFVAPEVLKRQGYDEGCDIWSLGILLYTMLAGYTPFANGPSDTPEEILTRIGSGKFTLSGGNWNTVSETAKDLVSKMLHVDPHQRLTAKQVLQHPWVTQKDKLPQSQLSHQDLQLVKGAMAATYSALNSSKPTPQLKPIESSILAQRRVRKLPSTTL

Compound | Cmax [1] | IC50 [2] | IC50 [3] | Vd [4] | IC50 [5] | half-life [6] | bioavailability [7] | clearance [8] | IC50 [10] | also measured
CC1=C(C(=O)Nc2ccc3[nH]ncc3c2F)C(c2ccc(C(F)(F)F)cc2)CC(=O)N1 (stereo unspecified) |  | > 10000 nM | 2500 nM |  | > 10000 nM |  |  |  |  | 
CC1=C(C(=O)Nc2ccc3[nH]ncc3c2)C(c2ccc(F)cc2)NC(=O)N1 (stereo unspecified) [GSK-180736A] |  | 3100 nM | 14 nM |  | 2850 nM |  |  |  | 760 nM | clearance [9]: 50 mL/min/kg; Cmax [11]: 567 ng/mL
CC1=C(C(=O)Nc2ccc3[nH]ncc3c2)C(c2ccc(F)cc2)CC(=O)N1 (stereo unspecified) |  | 1410 nM | 51 nM |  | 1100 nM |  |  |  | 200 nM | Cmax [12]: 668 ng/mL; clearance [13]: 47 mL/min/kg; Vd [14]: 2.1 L/kg; half-life [15]: 1 h; bioavailability [16]: 14%
CC1=C(C(=O)Nc2ccc3[nH]ncc3c2)C(c2ccc3ccccc3c2)CC(=O)N1 (stereo unspecified) [GSK-270822A] |  | 1100 nM | 9 nM |  | 1550 nM |  |  |  | 76 nM | Vd [17]: 1.8 L/kg; bioavailability [18]: 13%; Cmax [19]: 700 ng/mL; half-life [20]: 0.9 h; clearance [21]: 45 mL/min/kg
CC1=C(C(=O)Nc2ccc3[nH]ncc3c2)C(c2ccc(C(F)(F)F)cc2)CC(=O)N1 (stereo unspecified) | 315 ng/mL | 740 nM | 5 nM | 2.3 L/kg |  | 0.7 h | 22% | 51 mL/min/kg | 39 nM | 

Now from value to molecule, other results behind:

Cmax [1] | IC50 [2] | IC50 [3] | Vd [4] | IC50 [5] | half-life [6] | bioavailability [7] | clearance [8] | Compound | IC50 [10] | also measured
424 ng/mL | 90 nM | 8 nM | 3.9 L/kg | 590 nM | 1.2 h | 29% | 81 mL/min/kg | CC1=C(C(=O)Nc2cc(Cl)c3[nH]ncc3c2)C(c2ccc(C(F)(F)F)cc2)CC(=O)N1 (stereo unspecified) [GSK-466317A] |  | 
 | 780 nM | 14 nM |  | 1940 nM |  |  |  | CC1=C(C(=O)Nc2cc3cn[nH]c3cc2F)C(c2ccc(C(F)(F)F)cc2)CC(=O)N1 (stereo unspecified) | 190 nM | clearance [22]: 25 mL/min/kg; half-life [23]: 1 h; concentration at 8 h [24]: 74 ng/mL; concentration at 24 h [25]: 2 ng/mL; Cmax [26]: 1560 ng/mL; Vd [27]: 1.4 L/kg; concentration at 0.5 h [28]: 193 ng/mL; bioavailability [29]: 61%; concentration at 1 h [30]: 192 ng/mL; concentration at 4 h [31]: 110 ng/mL; concentration at 2 h [32]: 190 ng/mL; Activity [33]: Dose-dependent effect
 | 1950 nM | 9 nM |  | 4790 nM |  |  |  | CC1=C(C(=O)Nc2ccc3[nH]nc(C)c3c2)C(c2ccc(C(F)(F)F)cc2)CC(=O)N1 (stereo unspecified) [GSK-466314A] | 130 nM | clearance [34]: 24 mL/min/kg; Vd [35]: 2.8 L/kg; Cmax [11]: 672 ng/mL; bioavailability [36]: 18%; half-life [37]: 2 h
334 ng/mL | 620 nM | 8 nM | 2.4 L/kg | 560 nM | 0.8 h | 1% | 57 mL/min/kg | CC1=C(C(=O)Nc2ccc3[nH]ncc3c2)C(c2ccc(Cl)c(Cl)c2)CC(=O)N1 (stereo unspecified) [GSK-299115A] |  | 
